Measurements reported in US20230285490A1, “ADDITIVE TO FISH FOOD COMPRISING TWO PLANT EXTRACTS AND A SEAWEED (PALMARIA PALMATA) EXTRACT AS TASTE MASKING AGENT; AND A METHOD TO COMBAT/ELIMINATE INFESTATIONS OF CALIGUS BY STERILIZATION OF FEMALE INDIVIDUALS IN FISH FARMING CENTERS AND MARINE CONCESSIONS” (priority 2020, published 2023).

System: ovigerous Caligus females
Experiment: In vitro plate bioassay on swimming behavior and survival of ovigerous Caligus females, comparison with emamectin benzoate (Example 7)
Conditions: 2 hours, 14° C., sea water
Source text: However, 75% living females slowly swam, having a slow response to stimulus and adhered to experimentation vessels. • Between 87 and 100% parasites survived in control with solvents (methanol and DMSO) used to prepare each product and in sea water. Under these conditions females actively swam and readily responded to stimulus as bubbles of the aeration system or manipulation with tweezers.

For emamectin benzoate, the “Affected and dead Total (%)” value (15 ovigerous females) was 27%, the Affected ovigerous females (15 ovigerous females) was 1 and the “Vivas (living ovigerous females)” value (15 ovigerous females) was 11. For the same substance, the dead ovigerous females (15 ovigerous females) was 3, the “Affected and dead Total (%)” value (15 ovigerous females, listed as emamectin benzoate) was 25% and the “remaining living females with slow/erratic swimming” value was 75%.
